Measurements: patent publication US20100179221A1, “FLUORINE-SUBSTITUTED AMPHETAMINES AND AMPHETAMINE DERIVATIVES AND USE THEREOF” (Universitat Tubingen, priority 2007, published 2010)

Assays:
[1] = tested on: Haloperidol-induced catalepsy; test: Haloperidol-induced catalepsy test (descent test), model for parkinsonism; assay type: in vivo, Sprague-Dawley rats; conditions: for descent latency: rats after haloperidol 0.5 mg/kg, compound 5 mg/kg, FIG. 1, vehicle control about 130 seconds
Procedure: (§1) Next, rats (Sprague-Dawley rats; Charles-River, Sulzfeld, Germany) were established as the animal model. The rats were kept in constant, reproducible conditions. Sprague-Dawley rats weighing about 220 to 300 g were used in the experiment. The rats were kept in groups. A light cycle of 12:12 hours was maintained (light switched on from 07:00 to 19:00 hours). For two weeks before the experiments, all the rats were kept in the same room. Water was made available ad libitum, standard animal feed was supplied once daily in an amount of 12 g per animal. All experiments were carried out between 09:00 and 17:00 hours and complied with international ethical standards and the German animal protection law. It was approved by the Animal Protection Commission, Tübingen Administrative Board, ZP 5/01.
Haloperidol-induced catalepsy is used here as a model for parkinsonism. Haloperidol is a dopamine receptor-blocking drug. The catalepsy induced in this way comprises akinesia and rigor. The haloperidol model can be treated with all known clinically effective antiparkinsonism drugs, as described above.
Dopamine hypofunction and the consequent parkinsonian symptoms were generated as follows.
Control Group: • Haloperidol (Haldol, Janssen®, Germany) was diluted with phosphate buffered saline (PBS; Sigma, Deisenhofen, Germany) to a concentration of 0.5 mg per ml. Twelve rats were each given an intraperitoneal (i.p.) injection of this solution with an absolute amount of haloperidol of 0.5 mg per kilogram of body weight and an injection with PBS.
Test Group: • Another twelve rats were treated identically, but instead of the PBS injection were given a fluorine-substituted amphetamine derivative 1-(3,4-difluorophenyl)-2-(N-ethylamino)propane (Formula III) dissolved in PBS.
The results of the descent tests are illustrated in FIG. 1. […] The descent latency of rats treated with MDMA (5 mg/kg) was much less, at about 30 seconds, but for the rats treated with 1-(3,4-difluorophenyl)-2-(N-ethylamino)propane (fMDE, Formula (III), 5 mg/kg) it was even lower.

[2] = tested on: L-DOPA-induced dyskinesias; test: L-DOPA-induced dyskinesia (AIM) in 6-hydroxydopamine hemiparkinsonian rats; assay type: in vivo
Procedure: as §1
24 rats were put in deep narcosis. One hemisphere of the rats was treated in each case with the neurotoxin 6-hydroxydopamine, which destroyed dopaminergic neurons in this hemisphere. […] Then the animals were treated intraperitoneally with an antiparkinsonian drug twice daily for 25 days. This comprised L-DOPA-methyl ester in an amount of 10 mg per kg of body weight with benserazide in an amount of 7.5 mg per kg of body weight (Sigma, Deisenhofen, Germany). Under this treatment the rats developed dyskinesias of the contralateral forepaws.
Control Group: • Continuing this treatment, 12 of the 24 rats were treated additionally with PBS.
Test Group: • The other twelve rats were treated additionally with a fluorinated amphetamine derivative 1-(3,4-difluorophenyl)-2-(N-ethylamino)propane (Formula III).
The results for the treatment are illustrated in FIG. 2. The dyskinesia was quantified (AIM=abnormal involuntary movements) in the control group on five successive days. […] For comparison, the dyskinesia quantification of the test group, i.e., the animals additionally treated with 1-(3,4-difluorophenyl)-2-(N-ethylamino)propane (Formula (III), fMDE, 5 mg/kg), was observed. The measurements were in each case recorded 60 minutes after the animals were treated. […]

## CNC(C)Cc1ccc2c(c1)OCO2 (stereo not drawn) [MDMA, 3,4-methylene dioxymethamphetamine, reference compound]
[1]
  descent latency: about 30 seconds

## CCNC(C)Cc1ccc(F)c(F)c1 (stereo not drawn) [Formula III, 1-(3,4-difluorophenyl)-2-(N-ethylamino)propane]
[1]; haloperidol 0.5 mg/kg i.p., compound dissolved in PBS, versus haloperidol + PBS
  akinesia and rigor in the catalepsy test, test group versus control group: significantly less pronounced
[1]
  descent latency: even lower
[2]; 5 mg/kg, administration on successive days
  onset of the antidyskinetic effect: already seen on the first day
[2]; 5 mg/kg, recorded 60 minutes after treatment, five successive days, FIG. 2
  number of AIMs (abnormal involuntary movements) per 4 min versus vehicle control: almost halved
[2]; in addition to L-DOPA-methyl ester 10 mg/kg + benserazide 7.5 mg/kg
  expression of the dyskinesias, test group versus control group: significantly reduced
